{"source": "patent US12291519B2", "about": "“2-hydroxycycloalkane-1-carbamoyl” (Idorsia Pharmaceuticals Ltd, priority 2019, dated 2025)", "key": {"human Gal-1 (hGal-1)": {"biological_target": "human Gal-1 (hGal-1)", "sequence (P09382 2-135 limits assumed)": "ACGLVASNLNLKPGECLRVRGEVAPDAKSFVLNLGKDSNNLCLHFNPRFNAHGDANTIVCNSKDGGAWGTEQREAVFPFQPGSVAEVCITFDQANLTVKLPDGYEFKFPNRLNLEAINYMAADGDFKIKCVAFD", "experiment": "Competitive binding assay: biotinylated hGal-1 binding to microplate-adsorbed asialofetuin (ASF)", "conditions": "Activity on hGal-1; binding of biotinylated hGal-1 to ASF-coated plates; mean values", "experimental": "(§1) Evaluation of Compound Inhibitory Activity (IC50)\nThe inhibitory activity of compounds is determined in competitive binding assays. This spectrophotometric assay measures the binding of biotinylated human Gal-3 (hGal-3) or human Gal-1 (hGAl-1), respectively, to a microplate-adsorbed glycoprotein, asialofetuin (ASF) (Proc Natl Acad Sci USA. 2013 Mar. 26; 110(13):5052-7.). Alternatively, and preferably, a human Gal-1 version in which all six cysteines are substituted by serines may be used.\nBriefly, compounds are serially diluted in DMSO (working dilutions). ASF-coated 384 well pates are supplemented with 22.8 μL/well of biotinylated hGal-3 or hGal-1 in assay buffer (i.e. 300-1000 ng/mL biotinylated hGal-3 or hGal-1) to which 1.2 μL of compound working dilutions are added and mixed.\n(§2) Plates are incubated for 3 hours at 4° C. then washed with cold assay buffer (3×50 uL), incubated for 1 hour with 25 μL/well of a streptavidin-peroxidases solution (diluted in assay buffer to 80 ng/mL) at 4° C., followed by further washing steps with assay buffer (3×50 uL). Finally, 25 μL/well of ABTS substrate is added. OD (410 nm) is recorded after 30 to 45 min and IC50 values are calculated.\n(§3) The calculated IC50 values may fluctuate depending on the daily assay performance. Fluctuations of this kind are known to those skilled in the art. IC50 values from several measurements are given as mean values."}, "human Gal-3 (hGal-3)": {"biological_target": "human Gal-3 (hGal-3) (Homo sapiens (Human), UniProt P17931)", "sequence (P17931 whole entry)": "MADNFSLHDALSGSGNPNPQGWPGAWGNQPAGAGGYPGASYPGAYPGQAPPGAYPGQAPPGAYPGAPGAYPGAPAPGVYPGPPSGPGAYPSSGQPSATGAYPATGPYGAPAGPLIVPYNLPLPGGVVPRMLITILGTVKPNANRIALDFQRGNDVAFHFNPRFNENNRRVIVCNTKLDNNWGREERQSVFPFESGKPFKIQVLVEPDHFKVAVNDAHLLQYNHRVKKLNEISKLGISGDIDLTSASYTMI", "experiment": "Competitive binding assay: biotinylated hGal-3 binding to microplate-adsorbed asialofetuin (ASF)", "conditions": "Activity on hGal-3; binding of biotinylated hGal-3 to ASF-coated plates; mean values", "experimental": "as §1\nThe inhibitory activity of compounds is determined in competitive binding assays. […] Alternatively, and preferably, a human Gal-1 version in which all six cysteines are substituted by serines may be used.\nBriefly, compounds are serially diluted in DMSO (working dilutions).\nas §2, with “added.” for “added. OD (410 nm) is recorded after 30 to 45 min and IC50 values are calculated.”\nas §3"}}, "note": "pIC50: −log10 of the molar value."}
{"smiles": "CO[C@@H]1[C@@H](n2cc(-c3cc(F)c(F)c(F)c3)nn2)[C@@H](O)[C@@H](CO)O[C@H]1C(=O)N(Cc1nccn1C)[C@H]1CCCC[C@@H]1O", "note": "[Example 37, (2R,3R,4S,5R,6R)-5-hydroxy-N-((1S,2S)-2-hydroxycyclohexyl)-6-(hydroxymethyl)-3-methoxy-N-((1-methyl-1H-imidazol-2-yl)methyl)-4-(4-(3,4,5-trifluorophenyl)-1H-1,2,3-triazol-1-yl)tetrahydro-2H-pyran-2-carboxamide]", "values": [{"measurement": "pIC50", "setting": "human Gal-1 (hGal-1)", "result": 5.24}, {"measurement": "pIC50", "setting": "human Gal-3 (hGal-3)", "result": 6.47}]}
{"smiles": "CO[C@@H]1[C@@H](n2cc(-c3cc(F)c(F)c(F)c3)nn2)[C@@H](O)[C@@H](CO)O[C@H]1C(=O)N(Cc1ccsc1C)[C@H]1CCCC[C@@H]1O", "note": "[Example 38, (2R,3R,4S,5R,6R)-5-hydroxy-N-((1S,2S)-2-hydroxycyclohexyl)-6-(hydroxymethyl)-3-methoxy-N-((2-methylthiophen-3-yl)methyl)-4-(4-(3,4,5-trifluorophenyl)-1H-1,2,3-triazol-1-yl)tetrahydro-2H-pyran-2-carboxamide]", "values": [{"measurement": "pIC50", "setting": "human Gal-1 (hGal-1)", "result": 5.77}, {"measurement": "pIC50", "setting": "human Gal-3 (hGal-3)", "result": 6.68}]}
{"smiles": "COc1ccccc1CN(C(=O)[C@@H]1O[C@H](CO)[C@H](O)[C@H](n2cc(-c3cc(F)c(F)c(F)c3)nn2)[C@H]1OC)[C@H]1CCCC[C@@H]1O", "note": "[Example 39, (2R,3R,4S,5R,6R)-5-hydroxy-N-((1S,2S)-2-hydroxycyclohexyl)-6-(hydroxymethyl)-3-methoxy-N-(2-methoxybenzyl)-4-(4-(3,4,5-trifluorophenyl)-1H-1,2,3-triazol-1-yl)tetrahydro-2H-pyran-2-carboxamide]", "values": [{"measurement": "pIC50", "setting": "human Gal-1 (hGal-1)", "result": 5.53}, {"measurement": "pIC50", "setting": "human Gal-3 (hGal-3)", "result": 6.65}]}
{"smiles": "COc1cccc(OC)c1CN(C(=O)[C@@H]1O[C@H](CO)[C@H](O)[C@H](n2cc(-c3cc(F)c(F)c(F)c3)nn2)[C@H]1OC)[C@H]1CCCC[C@@H]1O", "note": "[Example 40, (2R,3R,4S,5R,6R)-N-(2,6-dimethoxybenzyl)-5-hydroxy-N-((1S,2S)-2-hydroxycyclohexyl)-6-(hydroxymethyl)-3-methoxy-4-(4-(3,4,5-trifluorophenyl)-1H-1,2,3-triazol-1-yl)tetrahydro-2H-pyran-2-carboxamide]", "values": [{"measurement": "pIC50", "setting": "human Gal-1 (hGal-1)", "result": 5.33}, {"measurement": "pIC50", "setting": "human Gal-3 (hGal-3)", "result": 6.70}]}
{"smiles": "Cn1ccnc1CN(C(=O)[C@@H]1O[C@H](CO)[C@H](O)[C@H](n2cc(-c3cc(F)c(F)c(F)c3)nn2)[C@H]1O)[C@H]1CCCC[C@@H]1O", "note": "[Example 41, (2R,3R,4S,5R,6R)-3,5-dihydroxy-N-((1S,2S)-2-hydroxycyclohexyl)-6-(hydroxymethyl)-N-((1-methyl-1H-imidazol-2-yl)methyl)-4-(4-(3,4,5-trifluorophenyl)-1H-1,2,3-triazol-1-yl)tetrahydro-2H-pyran-2-carboxamide]", "values": [{"measurement": "pIC50", "setting": "human Gal-1 (hGal-1)", "result": 4.91}, {"measurement": "pIC50", "setting": "human Gal-3 (hGal-3)", "result": 6.33}]}
{"smiles": "CC(=O)O[C@@H]1[C@@H](n2cc(-c3cc(F)c(F)c(F)c3)nn2)[C@@H](O)[C@@H](CO)O[C@H]1C(=O)N(Cc1nccn1C)[C@H]1CCCC[C@@H]1O", "note": "[Example 42]", "values": [{"measurement": "pIC50", "setting": "human Gal-1 (hGal-1)", "result": 4.46}, {"measurement": "pIC50", "setting": "human Gal-3 (hGal-3)", "result": 6.67}]}
{"smiles": "CC(=O)O[C@@H]1[C@@H](n2cc(-c3cc(F)c(F)c(F)c3)nn2)[C@@H](O)[C@@H](CO)O[C@H]1C(=O)N(Cc1ccnn1C)[C@H]1CCCC[C@@H]1O", "note": "[Example 43, (2R,3R,4S,5R,6R)-5-hydroxy-2-(((1S,2S)-2-hydroxycyclohexyl)((1-methyl-1H-pyrazol-5-yl)methyl)carbamoyl)-6-(hydroxymethyl)-4-(4-(3,4,5-trifluorophenyl)-1H-1,2,3-triazol-1-yl)tetrahydro-2H-pyran-3-yl acetate]", "values": [{"measurement": "pIC50", "setting": "human Gal-1 (hGal-1)", "result": 5.57}, {"measurement": "pIC50", "setting": "human Gal-3 (hGal-3)", "result": 7.12}]}
{"smiles": "CCn1nccc1CN(C(=O)[C@@H]1O[C@H](CO)[C@H](O)[C@H](n2cc(-c3cc(F)c(F)c(F)c3)nn2)[C@H]1OC)[C@H]1CCCC[C@@H]1O", "note": "[Example 44, (2R,3R,4S,5R,6R)-N-((1-ethyl-1H-pyrazol-5-yl)methyl)-5-hydroxy-N-((1S,2S)-2-hydroxycyclohexyl)-6-(hydroxymethyl)-3-methoxy-4-(4-(3,4,5-trifluorophenyl)-1H-1,2,3-triazol-1-yl)tetrahydro-2H-pyran-2-carboxamide]", "values": [{"measurement": "pIC50", "setting": "human Gal-1 (hGal-1)", "result": 6.01}, {"measurement": "pIC50", "setting": "human Gal-3 (hGal-3)", "result": 6.75}]}
{"smiles": "CO[C@@H]1[C@@H](n2cc(-c3cc(F)c(F)c(F)c3)nn2)[C@@H](O)[C@@H](CO)O[C@H]1C(=O)N(Cc1ccnn1C(C)C)[C@H]1CCCC[C@@H]1O", "note": "[Example 45, (2R,3R,4S,5R,6R)-5-hydroxy-N-((1S,2S)-2-hydroxycyclohexyl)-6-(hydroxymethyl)-N-((1-isopropyl-1H-pyrazol-5-yl)methyl)-3-methoxy-4-(4-(3,4,5-trifluorophenyl)-1H-1,2,3-triazol-1-yl)tetrahydro-2H-pyran-2-carboxamide]", "values": [{"measurement": "pIC50", "setting": "human Gal-1 (hGal-1)", "result": 5.84}, {"measurement": "pIC50", "setting": "human Gal-3 (hGal-3)", "result": 6.38}]}
{"smiles": "CO[C@@H]1[C@@H](n2cc(-c3cc(F)c(F)c(F)c3)nn2)[C@@H](O)[C@@H](CO)O[C@H]1C(=O)N(Cc1ccnn1CC1CC1)[C@H]1CCCC[C@@H]1O", "note": "[Example 46, (2R,3R,4S,5R,6R)-N-((1-(cyclopropylmethyl)-1H-pyrazol-5-yl)methyl)-5-hydroxy-N-((1S,2S)-2-hydroxycyclohexyl)-6-(hydroxymethyl)-3-methoxy-4-(4-(3,4,5-trifluorophenyl)-1H-1,2,3-triazol-1-yl)tetrahydro-2H-pyran-2-carboxamide]", "values": [{"measurement": "pIC50", "setting": "human Gal-1 (hGal-1)", "result": 6.30}, {"measurement": "pIC50", "setting": "human Gal-3 (hGal-3)", "result": 6.80}]}
{"smiles": "CO[C@@H]1[C@@H](n2cc(-c3cc(F)c(F)c(F)c3)nn2)[C@@H](O)[C@@H](CO)O[C@H]1C(=O)N(Cc1cc(C)nn1C)[C@H]1CCCC[C@@H]1O", "note": "[Example 47, (2R,3R,4S,5R,6R)-N-((1,3-dimethyl-1H-pyrazol-5-yl)methyl)-5-hydroxy-N-((1S,2S)-2-hydroxycyclohexyl)-6-(hydroxymethyl)-3-methoxy-4-(4-(3,4,5-trifluorophenyl)-1H-1,2,3-triazol-1-yl)tetrahydro-2H-pyran-2-carboxamide]", "values": [{"measurement": "pIC50", "setting": "human Gal-1 (hGal-1)", "result": 5.98}, {"measurement": "pIC50", "setting": "human Gal-3 (hGal-3)", "result": 6.82}]}
{"smiles": "CO[C@@H]1[C@@H](n2cc(-c3cc(F)c(F)c(F)c3)nn2)[C@@H](O)[C@@H](CO)O[C@H]1C(=O)N(Cc1cc2ccccc2n1C)[C@H]1CCCC[C@@H]1O", "note": "[Example 48, (2R,3R,4S,5R,6R)-5-hydroxy-N-((1S,2S)-2-hydroxycyclohexyl)-6-(hydroxymethyl)-3-methoxy-N-((1-methyl-1H-indol-2-yl)methyl)-4-(4-(3,4,5-trifluorophenyl)-1H-1,2,3-triazol-1-yl)tetrahydro-2H-pyran-2-carboxamide]", "values": [{"measurement": "pIC50", "setting": "human Gal-1 (hGal-1)", "result": 5.65}, {"measurement": "pIC50", "setting": "human Gal-3 (hGal-3)", "result": 6.46}]}
{"smiles": "CC(=O)O[C@@H]1[C@@H](n2cc(-c3cc(F)cc(F)c3)nn2)[C@@H](O)[C@@H](CO)O[C@H]1C(=O)N(Cc1ccnn1C)[C@H]1CCCC[C@@H]1O", "note": "[Example 49, (2R,3R,4S,5R,6R)-4-(4-(3,5-difluorophenyl)-1H-1,2,3-triazol-1-yl)-5-hydroxy-2-(((1S,2S)-2-hydroxycyclohexyl)((1-methyl-1H-pyrazol-5-yl)methyl)carbamoyl)-6-(hydroxymethyl)tetrahydro-2H-pyran-3-yl acetate]", "values": [{"measurement": "pIC50", "setting": "human Gal-1 (hGal-1)", "result": 5.71}, {"measurement": "pIC50", "setting": "human Gal-3 (hGal-3)", "result": 6.89}]}
{"smiles": "CC(=O)O[C@@H]1[C@@H](n2cc(-c3cc(F)c(Cl)c(F)c3)nn2)[C@@H](O)[C@@H](CO)O[C@H]1C(=O)N(Cc1ccnn1C)[C@H]1CCCC[C@@H]1O", "note": "[Example 50, (2R,3R,4S,5R,6R)-4-(4-(4-chloro-3,5-difluorophenyl)-1H-1,2,3-triazol-1-yl)-5-hydroxy-2-(((1S,2S)-2-hydroxycyclohexyl)((1-methyl-1H-pyrazol-5-yl)methyl)carbamoyl)-6-(hydroxymethyl)tetrahydro-2H-pyran-3-yl acetate]", "values": [{"measurement": "pIC50", "setting": "human Gal-1 (hGal-1)", "result": 5.12}, {"measurement": "pIC50", "setting": "human Gal-3 (hGal-3)", "result": 7.28}]}
{"smiles": "CC(=O)O[C@@H]1[C@@H](n2cc(-c3cc(F)c(C)c(F)c3)nn2)[C@@H](O)[C@@H](CO)O[C@H]1C(=O)N(Cc1ccnn1C)[C@H]1CCCC[C@@H]1O", "note": "[Example 51, (2R,3R,4S,5R,6R)-4-(4-(3,5-difluoro-4-methylphenyl)-1H-1,2,3-triazol-1-yl)-5-hydroxy-2-(((1S,2S)-2-hydroxycyclohexyl)((1-methyl-1H-pyrazol-5-yl)methyl)carbamoyl)-6-(hydroxymethyl)tetrahydro-2H-pyran-3-yl acetate]", "values": [{"measurement": "pIC50", "setting": "human Gal-1 (hGal-1)", "result": 4.95}, {"measurement": "pIC50", "setting": "human Gal-3 (hGal-3)", "result": 7.24}]}
{"smiles": "CC(=O)O[C@@H]1[C@@H](n2cc(-c3cccc(F)c3)nn2)[C@@H](O)[C@@H](CO)O[C@H]1C(=O)N(Cc1ccnn1C)[C@H]1CCCC[C@@H]1O", "note": "[Example 52, (2R,3R,4S,5R,6R)-4-(4-(3-fluorophenyl)-1H-1,2,3-triazol-1-yl)-5-hydroxy-2-(((1S,2S)-2-hydroxycyclohexyl)((1-methyl-1H-pyrazol-5-yl)methyl)carbamoyl)-6-(hydroxymethyl)tetrahydro-2H-pyran-3-yl acetate]", "values": [{"measurement": "pIC50", "setting": "human Gal-1 (hGal-1)", "result": 5.80}, {"measurement": "pIC50", "setting": "human Gal-3 (hGal-3)", "result": 6.72}]}
